Measured values reported in ChEMBL document CHEMBL1268847, “Discovery of orally bioavailable imidazo[1,2-a]pyrazine-based Aurora kinase inhibitors” (Bioorg Med Chem Lett, 2010).
Converted amounts (≈) assume the structure as drawn. Blank lines part the entries; values can stand above or below the compound they belong to.

Experiments:
Aurora kinase A = target: T1, Aurora kinase A (Homo sapiens, UniProt O14965); assay: Inhibition of Aurora A
T1 sequence (O14965 whole entry): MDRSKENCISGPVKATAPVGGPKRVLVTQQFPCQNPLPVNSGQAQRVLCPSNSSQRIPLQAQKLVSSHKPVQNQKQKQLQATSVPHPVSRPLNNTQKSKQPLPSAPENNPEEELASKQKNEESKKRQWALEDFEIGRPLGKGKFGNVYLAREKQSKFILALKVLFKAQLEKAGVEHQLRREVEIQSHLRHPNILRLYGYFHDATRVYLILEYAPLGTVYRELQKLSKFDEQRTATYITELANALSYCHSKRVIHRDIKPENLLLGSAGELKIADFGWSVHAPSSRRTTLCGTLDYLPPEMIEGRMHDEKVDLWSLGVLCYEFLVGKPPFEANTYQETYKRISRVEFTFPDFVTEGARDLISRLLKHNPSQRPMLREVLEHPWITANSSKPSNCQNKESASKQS

Aurora kinase B = Aurora kinase B (Homo sapiens, UniProt Q96GD4); assay: Inhibition of Aurora B
[1] = Inhibition of Aurora kinase assessed as reduction histone H3 Ser10 phosphorylation by cell based assay
[2] = AUC (0-6 hrs) in rat at 10 mg/kg, po; assay type: ADME, organism-based; set-up: time < 6 hr, dose 10 mg/kg, route oral; conditions: plasma
[3] = target: Tyrosine-protein kinase Lck (Homo sapiens, UniProt P06239); assay: Inhibition of LCK
[4] = Solubility in 20 mM acetate buffer at pH 4.0; assay type: physicochemical
[5] = Half life in rat at 10 mg/kg, iv; assay type: ADME, organism-based; set-up: dose 10 mg/kg, route intravenous; conditions: in vivo
[6] = AUC (0-infinity) in mouse at 50 mg/kg, po; assay type: ADME, organism-based; set-up: time infinity, dose 50 mg/kg, route oral; conditions: plasma
[7] = AUC (0-infinity) in rat at 30 mg/kg, po; assay type: ADME, organism-based; set-up: time infinity, dose 30 mg/kg, route oral; conditions: plasma
[8] = Clearance in rat at 10 mg/kg, iv; assay type: ADME, organism-based; set-up: dose 10 mg/kg, route intravenous; conditions: in vivo
Canis familiaris [9] = assay: AUC (0-infinity) in dog at 10 mg/kg, po; assay type: ADME, organism-based, Canis lupus familiaris, Plasma; set-up: time infinity, dose 10 mg/kg, route oral; conditions: in vivo
[10] = AUC (0-infinity) in rat at 10 mg/kg, iv; assay type: ADME, organism-based; set-up: time infinity, dose 10 mg/kg, route intravenous; conditions: plasma
A2780 [11] = assay: Antitumor activity against human A2780 cells xenografted in nu/nu mouse assessed as tumor growth inhibition administered twice daily for 3 or 5 days; assay type: functional, cell-based
[12] = Volume of distribution at steady state in mouse at 3 mg/kg, iv; assay type: ADME, organism-based; set-up: dose 3 mg/kg, route intravenous; conditions: in vivo, read-out: Vdss
[13] = target: Mitogen-activated protein kinase 1 (Homo sapiens, UniProt P28482); assay: Inhibition of ERK2
[14] = target: Tyrosine-protein kinase JAK2 (Homo sapiens, UniProt O60674); assay: Inhibition of JAK2
A2780 [15] = assay: Antitumor activity against human A2780 cells assessed as inhibition of cell growth; assay type: functional, cell-based
A2780 [16] = assay: Antitumor activity against human A2780 cells xenografted in nu/nu mouse assessed as tumor growth inhibition at 45 mg/kg, po bid for 5 days relative to untreated control; assay type: functional; conditions: A2780, 120 h, read-out: TGI
[17] = target: Ribosomal protein S6 kinase alpha-3 (Homo sapiens, UniProt P51812); assay: Inhibition of RSK2
Canis familiaris [18] = assay: AUC (0-infinity) in dog at 1 mg/kg, iv; assay type: ADME, organism-based, Canis lupus familiaris, Plasma; set-up: time infinity, dose 1 mg/kg, route intravenous; conditions: in vivo
Canis familiaris [19] = assay: Half life in dog at 1 mg/kg, iv; assay type: ADME, organism-based, Canis lupus familiaris; set-up: dose 1 mg/kg, route intravenous; conditions: in vivo
[20] = AUC (0-infinity) in mouse at 3 mg/kg, iv; assay type: ADME, organism-based; set-up: time infinity, dose 3 mg/kg, route intravenous; conditions: plasma
A2780 [21] = assay: Antitumor activity against human A2780 cells assessed as inhibition of cell survival; assay type: functional, cell-based
A2780 [22] = assay: Antitumor activity against human A2780 cells xenografted in nu/nu mouse assessed as tumor growth inhibition at 90 mg/kg, po bid for 3 days relative to untreated control; assay type: functional; conditions: A2780, 72 h, read-out: TGI
Canis familiaris [23] = assay: Volume of distribution at steady state in dog at 1 mg/kg, iv; assay type: ADME, organism-based, Canis lupus familiaris; set-up: dose 1 mg/kg, route intravenous; conditions: in vivo
[24] = Volume of distribution at steady state in rat at 10 mg/kg, iv; assay type: ADME, organism-based; set-up: dose 10 mg/kg, route intravenous; conditions: in vivo, read-out: Vdss
[25] = Oral bioavailability in rat at 30 mg/kg, po; assay type: ADME, organism-based; conditions: in vivo
[26] = target: Vascular endothelial growth factor receptor 2 (Homo sapiens, UniProt P35968); assay: Inhibition of VEGFR2
A2780 [27] = assay: Antitumor activity against human A2780 cells xenografted in nu/nu mouse assessed as tumor growth inhibition at 67.5 mg/kg, po bid for 3 days relative to untreated control; assay type: functional; conditions: A2780, 72 h, read-out: TGI
[28] = Half life in mouse at 3 mg/kg, iv; assay type: ADME, organism-based; set-up: dose 3 mg/kg, route intravenous; conditions: in vivo
Canis familiaris [29] = assay: Oral bioavailability in dog at 10 mg/kg, po; assay type: ADME, organism-based, Canis lupus familiaris; conditions: in vivo
[30] = target: T2, Interleukin-1 receptor-associated kinase 4 (Homo sapiens, UniProt Q9NWZ3); assay: Inhibition of IRK4
T2 sequence (Q9NWZ3 whole entry): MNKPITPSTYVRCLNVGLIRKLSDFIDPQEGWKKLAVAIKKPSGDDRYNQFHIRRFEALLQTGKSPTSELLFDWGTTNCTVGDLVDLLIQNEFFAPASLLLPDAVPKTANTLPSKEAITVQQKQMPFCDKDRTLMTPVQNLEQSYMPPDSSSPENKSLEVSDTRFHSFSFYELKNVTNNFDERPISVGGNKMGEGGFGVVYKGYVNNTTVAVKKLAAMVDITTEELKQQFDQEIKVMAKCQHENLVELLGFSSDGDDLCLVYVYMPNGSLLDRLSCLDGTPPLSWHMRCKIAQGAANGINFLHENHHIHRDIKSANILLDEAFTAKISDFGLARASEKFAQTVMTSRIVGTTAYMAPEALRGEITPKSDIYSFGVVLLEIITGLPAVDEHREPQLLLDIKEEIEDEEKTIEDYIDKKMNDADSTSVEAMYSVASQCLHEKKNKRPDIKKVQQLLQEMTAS

[31] = Oral bioavailability in mouse at 50 mg/kg, po; assay type: ADME, organism-based; conditions: in vivo
[32] = Clearance in mouse at 3 mg/kg, iv; assay type: ADME, organism-based; set-up: dose 3 mg/kg, route intravenous; conditions: in vivo
[33] = target: T3, Serine/threonine-protein kinase Chk1 (Homo sapiens, UniProt O14757); assay: Inhibition of CHK1
T3 sequence (O14757 whole entry): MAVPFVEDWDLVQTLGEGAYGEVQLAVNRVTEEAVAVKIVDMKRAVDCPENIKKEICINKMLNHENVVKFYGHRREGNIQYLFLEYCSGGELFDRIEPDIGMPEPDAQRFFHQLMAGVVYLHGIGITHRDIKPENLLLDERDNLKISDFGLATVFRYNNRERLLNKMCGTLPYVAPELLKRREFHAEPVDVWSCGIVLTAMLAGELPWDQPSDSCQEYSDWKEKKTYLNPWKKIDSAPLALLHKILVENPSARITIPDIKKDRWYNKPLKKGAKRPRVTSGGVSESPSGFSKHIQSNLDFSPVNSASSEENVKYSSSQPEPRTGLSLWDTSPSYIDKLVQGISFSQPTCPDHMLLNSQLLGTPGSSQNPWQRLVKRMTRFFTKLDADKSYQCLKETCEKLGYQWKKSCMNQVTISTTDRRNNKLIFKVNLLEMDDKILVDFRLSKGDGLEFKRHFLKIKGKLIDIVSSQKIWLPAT

Sequence of Tyrosine-protein kinase Lck (P06239 whole entry): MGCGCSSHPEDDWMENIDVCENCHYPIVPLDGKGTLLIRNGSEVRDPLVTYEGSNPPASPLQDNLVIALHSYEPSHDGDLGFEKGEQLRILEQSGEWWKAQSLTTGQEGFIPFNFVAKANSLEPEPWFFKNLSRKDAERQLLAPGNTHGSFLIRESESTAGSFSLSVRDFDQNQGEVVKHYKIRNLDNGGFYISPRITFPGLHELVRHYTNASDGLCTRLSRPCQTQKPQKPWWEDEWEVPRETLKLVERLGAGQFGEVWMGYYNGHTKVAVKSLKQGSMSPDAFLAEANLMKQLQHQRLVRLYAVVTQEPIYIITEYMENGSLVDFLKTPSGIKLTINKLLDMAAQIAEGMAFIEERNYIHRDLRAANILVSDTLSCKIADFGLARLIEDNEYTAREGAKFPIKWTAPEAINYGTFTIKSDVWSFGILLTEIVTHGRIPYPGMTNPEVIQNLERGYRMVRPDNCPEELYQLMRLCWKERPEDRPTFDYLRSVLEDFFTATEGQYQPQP
Sequence of Aurora kinase B (Q96GD4 whole entry): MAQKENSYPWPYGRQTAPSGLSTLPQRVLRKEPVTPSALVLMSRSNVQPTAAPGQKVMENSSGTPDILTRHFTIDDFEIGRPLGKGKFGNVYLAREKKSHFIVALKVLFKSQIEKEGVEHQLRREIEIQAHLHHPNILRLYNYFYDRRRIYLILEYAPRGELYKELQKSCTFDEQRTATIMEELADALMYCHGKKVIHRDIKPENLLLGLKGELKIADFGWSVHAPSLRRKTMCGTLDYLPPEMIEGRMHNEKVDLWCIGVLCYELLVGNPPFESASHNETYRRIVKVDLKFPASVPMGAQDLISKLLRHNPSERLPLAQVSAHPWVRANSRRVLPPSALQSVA
Sequence of Mitogen-activated protein kinase 1 (P28482 whole entry): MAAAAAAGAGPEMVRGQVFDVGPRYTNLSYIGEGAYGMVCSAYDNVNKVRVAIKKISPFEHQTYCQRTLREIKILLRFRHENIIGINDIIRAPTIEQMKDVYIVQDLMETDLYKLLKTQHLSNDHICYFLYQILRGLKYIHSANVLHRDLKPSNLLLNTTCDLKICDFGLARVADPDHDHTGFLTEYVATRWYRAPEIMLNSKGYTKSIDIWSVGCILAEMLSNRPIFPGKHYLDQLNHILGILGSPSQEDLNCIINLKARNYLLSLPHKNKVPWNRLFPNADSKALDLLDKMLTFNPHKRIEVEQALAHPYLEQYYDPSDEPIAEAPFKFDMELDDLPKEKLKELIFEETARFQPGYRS
Sequence of Ribosomal protein S6 kinase alpha-3 (P51812 whole entry): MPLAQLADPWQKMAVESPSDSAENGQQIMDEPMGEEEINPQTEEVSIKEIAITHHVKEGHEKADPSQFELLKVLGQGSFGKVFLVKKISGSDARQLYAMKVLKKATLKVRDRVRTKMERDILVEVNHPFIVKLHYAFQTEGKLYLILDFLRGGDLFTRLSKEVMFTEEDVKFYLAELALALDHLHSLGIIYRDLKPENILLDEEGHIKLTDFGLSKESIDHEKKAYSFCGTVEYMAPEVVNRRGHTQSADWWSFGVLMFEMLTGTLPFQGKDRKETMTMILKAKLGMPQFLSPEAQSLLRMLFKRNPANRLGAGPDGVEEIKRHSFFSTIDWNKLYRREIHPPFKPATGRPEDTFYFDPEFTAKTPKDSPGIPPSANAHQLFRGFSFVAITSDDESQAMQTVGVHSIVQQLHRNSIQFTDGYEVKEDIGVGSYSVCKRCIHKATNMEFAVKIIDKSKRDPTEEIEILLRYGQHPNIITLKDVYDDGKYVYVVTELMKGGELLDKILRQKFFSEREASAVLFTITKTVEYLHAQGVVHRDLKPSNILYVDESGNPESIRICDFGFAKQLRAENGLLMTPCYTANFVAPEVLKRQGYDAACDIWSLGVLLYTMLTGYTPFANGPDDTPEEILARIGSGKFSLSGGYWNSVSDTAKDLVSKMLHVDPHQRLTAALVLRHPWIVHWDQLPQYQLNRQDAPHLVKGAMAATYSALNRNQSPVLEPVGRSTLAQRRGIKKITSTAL
Sequence of Vascular endothelial growth factor receptor 2 (P35968 whole entry): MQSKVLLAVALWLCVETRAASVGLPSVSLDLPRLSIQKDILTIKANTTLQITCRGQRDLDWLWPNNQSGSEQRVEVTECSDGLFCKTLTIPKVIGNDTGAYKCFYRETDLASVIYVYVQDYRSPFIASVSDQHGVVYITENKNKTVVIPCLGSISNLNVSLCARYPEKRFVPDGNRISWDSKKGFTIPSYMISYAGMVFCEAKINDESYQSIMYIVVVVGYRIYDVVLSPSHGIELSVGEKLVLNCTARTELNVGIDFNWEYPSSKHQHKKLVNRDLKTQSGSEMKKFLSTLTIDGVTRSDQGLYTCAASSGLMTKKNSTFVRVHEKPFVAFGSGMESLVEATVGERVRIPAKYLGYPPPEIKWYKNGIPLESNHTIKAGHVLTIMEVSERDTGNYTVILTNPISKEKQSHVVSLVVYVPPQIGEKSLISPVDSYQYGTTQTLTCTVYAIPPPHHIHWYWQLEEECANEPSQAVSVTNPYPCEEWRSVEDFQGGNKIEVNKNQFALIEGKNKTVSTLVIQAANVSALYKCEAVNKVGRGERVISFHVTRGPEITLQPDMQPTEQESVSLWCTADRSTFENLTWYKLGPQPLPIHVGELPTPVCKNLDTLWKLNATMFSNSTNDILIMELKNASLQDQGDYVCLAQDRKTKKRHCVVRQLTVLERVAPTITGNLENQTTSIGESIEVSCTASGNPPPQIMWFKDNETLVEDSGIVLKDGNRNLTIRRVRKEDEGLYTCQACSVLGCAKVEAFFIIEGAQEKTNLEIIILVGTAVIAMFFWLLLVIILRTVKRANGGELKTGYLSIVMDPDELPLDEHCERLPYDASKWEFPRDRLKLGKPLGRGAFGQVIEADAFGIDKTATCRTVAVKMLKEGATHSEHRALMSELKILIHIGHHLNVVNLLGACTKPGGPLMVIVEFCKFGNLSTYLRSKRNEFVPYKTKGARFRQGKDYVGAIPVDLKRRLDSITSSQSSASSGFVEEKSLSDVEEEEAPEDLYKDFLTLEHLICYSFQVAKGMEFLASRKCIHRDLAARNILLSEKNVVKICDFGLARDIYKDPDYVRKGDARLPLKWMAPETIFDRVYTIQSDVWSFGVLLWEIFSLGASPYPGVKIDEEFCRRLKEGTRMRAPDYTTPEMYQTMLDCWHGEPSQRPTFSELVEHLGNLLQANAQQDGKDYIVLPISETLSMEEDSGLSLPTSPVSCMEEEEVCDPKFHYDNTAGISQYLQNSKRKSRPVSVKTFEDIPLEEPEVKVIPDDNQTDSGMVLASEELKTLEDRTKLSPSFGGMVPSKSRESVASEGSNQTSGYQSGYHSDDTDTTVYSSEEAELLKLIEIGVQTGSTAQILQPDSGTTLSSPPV
Sequence of Tyrosine-protein kinase JAK2 (O60674 whole entry): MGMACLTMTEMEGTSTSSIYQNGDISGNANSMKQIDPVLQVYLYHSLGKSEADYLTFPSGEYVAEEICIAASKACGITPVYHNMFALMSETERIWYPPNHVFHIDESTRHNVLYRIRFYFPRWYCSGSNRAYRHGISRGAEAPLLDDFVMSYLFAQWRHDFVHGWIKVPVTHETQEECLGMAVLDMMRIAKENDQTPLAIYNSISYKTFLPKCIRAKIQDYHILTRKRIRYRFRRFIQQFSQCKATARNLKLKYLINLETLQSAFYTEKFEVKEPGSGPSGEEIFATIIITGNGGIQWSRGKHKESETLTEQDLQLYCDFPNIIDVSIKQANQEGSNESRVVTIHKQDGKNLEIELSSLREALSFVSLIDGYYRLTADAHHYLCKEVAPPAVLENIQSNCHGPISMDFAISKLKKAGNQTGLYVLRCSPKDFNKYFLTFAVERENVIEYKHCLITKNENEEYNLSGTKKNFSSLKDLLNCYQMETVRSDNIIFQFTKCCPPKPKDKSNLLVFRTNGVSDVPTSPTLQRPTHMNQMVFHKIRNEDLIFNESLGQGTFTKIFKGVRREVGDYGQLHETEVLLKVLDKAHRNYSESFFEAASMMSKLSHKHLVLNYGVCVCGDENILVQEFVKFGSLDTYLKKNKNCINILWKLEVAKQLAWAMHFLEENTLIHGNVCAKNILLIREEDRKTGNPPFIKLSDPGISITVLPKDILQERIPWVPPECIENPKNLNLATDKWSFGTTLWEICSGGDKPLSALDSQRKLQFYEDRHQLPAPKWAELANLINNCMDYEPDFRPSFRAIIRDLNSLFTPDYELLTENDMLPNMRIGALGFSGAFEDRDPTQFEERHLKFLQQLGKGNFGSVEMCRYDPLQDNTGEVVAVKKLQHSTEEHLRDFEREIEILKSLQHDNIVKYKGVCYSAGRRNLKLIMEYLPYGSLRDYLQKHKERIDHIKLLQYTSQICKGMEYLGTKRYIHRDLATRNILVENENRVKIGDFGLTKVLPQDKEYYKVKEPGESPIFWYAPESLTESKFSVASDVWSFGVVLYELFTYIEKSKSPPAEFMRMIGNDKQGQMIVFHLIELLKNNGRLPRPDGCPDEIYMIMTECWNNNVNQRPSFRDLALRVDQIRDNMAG

IC50 (Aurora kinase A): ≤ 4 nM
IC50 (Aurora kinase B): ≤ 13 nM
EC50 [1]: > 1000 nM
Structure (SMILES): CCNC(=O)N1CCN(Cc2cc(Nc3nc(C)cn4c(-c5cn[nH]c5)cnc34)sn2)CC1

IC50 (Aurora kinase A): ≤ 4 nM
AUC(0-t) at 6 h [2]: 3.3 µM·h
IC50 (Aurora kinase B): ≤ 13 nM
EC50 [1]: 117 nM
IC50 [3]: 384 nM
Structure (SMILES): Cc1cn2c(-c3cn[nH]c3)cnc2c(Nc2cc(CN3CCOCC3(C)C)ns2)n1

solubility [4]: 4660 µg/mL (≈ 10.6 mM)
half-life [5]: 5 h
AUC(0-inf) [6]: 86.4 µM·h
AUC(0-inf) [7]: 57.7 µM·h
clearance [8]: 10 mL/min/kg
IC50 (Aurora kinase A): ≤ 4 nM
AUC (Canis familiaris [9]): 2.2 µM·h
AUC(0-inf) [10]: 38.8 µM·h
Vd [12]: 1.5 L/kg
IC50 [13]: > 10 nM
IC50 [14]: > 10 nM
EC50 (A2780 [15]): 19 nM
IC50 [17]: 330 nM
AUC(0-t) at 6 h [2]: 4.6 µM·h
AUC (Canis familiaris [18]): 3.4 µM·h
t1/2 (Canis familiaris [19]): 4.8 h
AUC(0-inf) [20]: 5.6 µM·h
Vdss (Canis familiaris [23]): 12 L/kg
Vd [24]: 1.6 L/kg
bioavailability [25]: 72%
IC50 [26]: 710 nM
half-life [28]: 3.9 h
IC50 (Aurora kinase B): ≤ 13 nM
F (Canis familiaris [29]): 50%
IC50 [30]: 1800 nM
bioavailability [31]: 92%
clearance [32]: 20 mL/min/kg
IC50 [33]: 140 nM
EC50 [1]: 28 nM
IC50 [3]: 510 nM
Structure (SMILES): Cc1cn2c(-c3cn[nH]c3)cnc2c(Nc2cc([C@@H](C)N3C[C@@H](C)O[C@@H](C)C3)ns2)n1
TGI (A2780 [11]): Dose-dependent effect
inhibition in vivo at 45 mg/kg (A2780 [16]): 41%
EC50 (A2780 [21]): 20 nM
inhibition in vivo at 90 mg/kg (A2780 [22]): 79%
inhibition in vivo at 67.5 mg/kg (A2780 [27]): 67%

IC50 (Aurora kinase A): ≤ 4 nM
AUC(0-t) at 6 h [2]: 0.5 µM·h
IC50 (Aurora kinase B): ≤ 13 nM
EC50 [1]: 49 nM
Structure (SMILES): CCC(c1cc(Nc2nc(C)cn3c(-c4cn[nH]c4)cnc23)sn1)N1CCOCC1 (racemic)

IC50 (Aurora kinase A): ≤ 4 nM
IC50 (Aurora kinase B): ≤ 13 nM
EC50 [1]: > 1000 nM
Structure (SMILES): Cc1cn2c(-c3cn[nH]c3)cnc2c(Nc2cc(CN3CCN(C)C(=O)C3)ns2)n1

IC50 (Aurora kinase A): ≤ 4 nM
IC50 (Aurora kinase B): ≤ 13 nM
EC50 [1]: 412 nM
Structure (SMILES): Cc1cn2c(-c3cn[nH]c3)cnc2c(Nc2cc(CN3CCN(C)CC3)ns2)n1

IC50 (Aurora kinase B): ≤ 13 nM
EC50 [1]: 600 nM
Structure (SMILES): CSc1cn2c(-c3cn[nH]c3)cnc2c(Nc2cc(C)ns2)n1

IC50 (Aurora kinase A): ≤ 4 nM
AUC(0-t) at 6 h [2]: 7.3 µM·h
IC50 (Aurora kinase B): ≤ 13 nM
EC50 [1]: 82 nM
Structure (SMILES): Cc1cn2c(-c3cn[nH]c3)cnc2c(Nc2cc(CN3C[C@@H](C)O[C@@H](C)C3)ns2)n1

IC50 (Aurora kinase A): ≤ 4 nM
IC50 (Aurora kinase B): ≤ 13 nM
EC50 [1]: > 500 nM
Structure (SMILES): Cc1cn2c(-c3cn[nH]c3)cnc2c(Nc2cc(CN3CCN(S(C)(=O)=O)CC3)ns2)n1

IC50 (Aurora kinase A): ≤ 4 nM
AUC(0-t) at 6 h [2]: 0.5 µM·h
IC50 (Aurora kinase B): ≤ 13 nM
EC50 [1]: 14 nM
IC50 [3]: 45 nM
Structure (SMILES): Cc1cn2c(-c3cn[nH]c3)cnc2c(Nc2cc(CN3CCCCC3(C)C)ns2)n1

IC50 (Aurora kinase A): ≤ 4 nM
AUC(0-t) at 6 h [2]: 3.9 µM·h
IC50 (Aurora kinase B): ≤ 13 nM
EC50 [1]: 256 nM
Structure (SMILES): Cc1cn2c(-c3cn[nH]c3)cnc2c(Nc2cc(CN3C[C@H](C)OC[C@@H]3C)ns2)n1

IC50 (Aurora kinase A): ≤ 4 nM
AUC(0-t) at 6 h [2]: 0.4 µM·h
IC50 (Aurora kinase B): ≤ 13 nM
EC50 [1]: 104 nM
Structure (SMILES): Cc1cn2c(-c3cn[nH]c3)cnc2c(Nc2cc(C(c3ccccn3)N3CCOCC3)ns2)n1 (racemic)

IC50 (Aurora kinase A): ≤ 4 nM
IC50 (Aurora kinase B): ≤ 13 nM
EC50 [1]: > 1000 nM
Structure (SMILES): Cc1cn2c(-c3cn[nH]c3)cnc2c(Nc2cc(CN3CCOC[C@@H]3CO)ns2)n1

IC50 (Aurora kinase A): ≤ 4 nM
IC50 (Aurora kinase B): ≤ 13 nM
EC50 [1]: > 1000 nM
Structure (SMILES): Cc1cn2c(-c3cn[nH]c3)cnc2c(Nc2cc(CN3CCN(CCO)CC3)ns2)n1
